pIC50, pKi: −log10 of the molar value. ≈ marks a conversion by molar mass, not a printed value. Where a name gives a salt, the structure may show the parent alone.
Legend:
[1] = tested on: Mycobacterium tuberculosis; assay: Antimycobacterial activity against Mycobacterium tuberculosis H37Rv assessed as growth inhibition at 12.5 ug/ml by BACTEC radiometric method relative to control; type: functional; conditions: read-out: GI
[2] = tested on: Mycobacterium tuberculosis; assay: Antimycobacterial activity against Mycobacterium tuberculosis H37Ra ATCC 25177 measured on 12th day by XTT reduction menadione assay; type: functional; conditions: H37Ra ATCC 25177, 288 h, time 12 day
[3] = tested on: Mycobacterium tuberculosis; assay: Antimycobacterial activity against Mycobacterium tuberculosis by microplate alamar blue assay; type: functional
[4] = tested on: Mycobacterium tuberculosis; assay: Antimycobacterial activity against Mycobacterium tuberculosis H37Rv incubated for 4 weeks; type: functional; conditions: 672 h
[5] = tested on: Mycobacterium tuberculosis; assay: Antimycobacterial activity against Mycobacterium tuberculosis H37Rv measured after 12 to 28 days by Lowenstein-Jensen method; type: functional; conditions: time 12-28 day
[6] = tested on: Mycobacterium tuberculosis; assay: Antimycobacterial activity against Mycobacterium tuberculosis H37Rv by Lowenstein-Jensen method; type: functional
[7] = tested on: Mycobacterium tuberculosis; assay: Antimycobacterial activity against Mycobacterium tuberculosis H37Rv incubated for 45 days by Lowenstein-Jensen method; type: functional; conditions: 1080 h, time 45 day
[8] = tested on: Mycobacterium tuberculosis; assay: Antimycobacterial activity against Mycobacterium tuberculosis H37Rv ATCC 27294 assessed as growth inhibition at 12.5 ug/ml by microplate alamar blue assay relative to control; type: functional; conditions: read-out: GI
[9] = tested on: Mycobacterium tuberculosis; assay: Antimycobacterial activity against Mycobacterium tuberculosis H37Rv assessed as bacterial inhibition at 25 ug/ml by microplate alamar blue assay relative to control; type: functional
[10] = tested on: Mycobacterium tuberculosis; assay: Antimycobacterial activity against Mycobacterium tuberculosis H37Rv assessed as inhibition of bacteria at 12.5 ug/ml by microplate alamar blue assay relative to control; type: functional
[11] = tested on: Mycobacterium tuberculosis; assay: Antimycobacterial activity against Mycobacterium tuberculosis H37Rv incubated for 7 days by resazurin dye based assay; type: functional; conditions: 168 h, time 7 day
[12] = tested on: Mycobacterium tuberculosis; assay: Antimycobacterial activity against Mycobacterium tuberculosis; type: functional
[13] = tested on: Mycobacterium tuberculosis; assay: Antimycobacterial activity against Mycobacterium tuberculosis H37Rv by filter paper disc diffusion method; type: functional
[14] = tested on: Mycolicibacterium smegmatis; assay: Antimycobacterial activity against Mycobacterium smegmatis ATCC 35797 incubated for 48 hrs by agar dilution method; type: functional
[15] = tested on: Mycobacterium tuberculosis; assay: Antimycobacterial activity against Mycobacterium tuberculosis H37Rv ATCC27294 incubated for 7 days by microplate alamar blue assay; type: functional; conditions: H37Rv ATCC 27294, 168 h, time 7 day
[16] = tested on: Mycobacterium tuberculosis; assay: Antimycobacterial activity against Mycobacterium tuberculosis H37Rv ATCC 27294 incubated for 5 days by microplate alamar blue assay; type: functional; conditions: H37Rv ATCC 27294, 120 h, time 5 day
[17] = tested on: Mycobacterium tuberculosis; assay: Antimycobacterial activity against Mycobacterium tuberculosis H37Rv incubated for 7 days by microplate alamar blue assay; type: functional; conditions: 168 h, time 7 day
[18] = tested on: Mycobacterium tuberculosis; assay: Antimycobacterial activity against Mycobacterium tuberculosis H37Rv ATCC27294 measured after 28 days by two-fold serial dilution method; type: functional; conditions: H37Rv ATCC 27294, 672 h, time 28 day
[19] = tested on: Mycobacterium tuberculosis; assay: Antimycobacterial activity against Mycobacterium tuberculosis ATCC 27286 assessed as zone of inhibition at 20 ug/ml; type: functional; conditions: read-out: IZ
[20] = tested on: Mycobacterium tuberculosis; assay: Antimycobacterial activity against Mycobacterium tuberculosis H37Rv ATCC 27294 by BACTEC radiometric method; type: functional
[21] = tested on: Mycobacterium tuberculosis; assay: Antimycobacterial activity against Mycobacterium tuberculosis H37Rv assessed as bacterial growth inhibition at 6.25 ug/ml by BACTEC MGIT method relative to control; type: functional
[22] = tested on: Mycobacterium tuberculosis; assay: Antimycobacterial activity against Mycobacterium tuberculosis H37Rv assessed as inhibition of bacteria at 12.5 ug/ml measured after 12 to 28 days by Lowenstein-Jensen method relative to control; type: functional; conditions: time 12-28 day
[23] = Inhibition of Mycobacterium tuberculosis Pantothenate Synthetase expressed in Escherichia coli BL21(DE3) cells using beta-alanine as substrate
[24] = tested on: Mycobacterium tuberculosis; assay: Antimycobacterial activity against Mycobacterium tuberculosis H37Rv assessed as growth inhibition at 50 ug/ml by Lowenstein-Jensen method relative to control; type: functional; conditions: read-out: GI
[25] = target: T1, Enoyl-[acyl-carrier-protein] reductase [NADH] (Mycobacterium tuberculosis, UniProt P9WGR1); assay: Inhibition of Mycobacterium tuberculosis InhA
T1 sequence (P9WGR1 whole entry): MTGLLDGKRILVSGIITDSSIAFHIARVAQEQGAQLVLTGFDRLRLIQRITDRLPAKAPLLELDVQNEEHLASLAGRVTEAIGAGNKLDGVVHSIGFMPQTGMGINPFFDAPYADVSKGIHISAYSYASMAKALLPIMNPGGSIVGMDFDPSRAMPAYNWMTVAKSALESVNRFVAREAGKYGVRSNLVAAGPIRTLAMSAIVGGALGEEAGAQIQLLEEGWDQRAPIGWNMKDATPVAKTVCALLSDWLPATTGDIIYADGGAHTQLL

[26] = tested on: Mycobacterium tuberculosis; assay: Antimycobacterial activity against Mycobacterium tuberculosis H37Ra ATCC 25177 assessed as inhibition of bacteria at 30 ug/ml by XTT reduction menadione assay relative to control; type: functional

## O=C(O)c1ccc(N2C(=O)CSC23C(=O)Nc2ccc(F)cc23)cc1O (stereo not given)
[1]
  inhibition of growth at 12.5 µg/mL: 98%

## O=C1CSC(c2ccc(OCc3cc4ccccc4n4nnnc34)cc2)N1c1ccc([N+](=O)[O-])cc1 (stereo not given)
[2]
  MIC: 20.3 µg/mL (≈ 40.8 µM)

## O=C(NN1C(=O)CSC1c1ccc(O)cc1)c1coc2ccc3ccccc3c12 (stereo not given)
[3]
  MIC: 50 µg/mL (≈ 124 µM)

## COc1ccc(/C=C2\SC(=O)N(CNNC(=O)c3ccncc3)C2=O)cc1
[4]
  MIC: 50 µg/mL (≈ 130 µM)

## N#CSc1ccc2nc(NC(=O)CN3C(=O)/C(=C/c4cccc(Br)c4)SC3=S)sc2c1
[5]
  MIC: 25 µg/mL (≈ 45.7 µM)

## COc1cc(C2SCC(=O)N2NC2=Nc3ccccc3Sc3ccccc32)cc(OC)c1OC (stereo not given)
[6]
  MIC: 125 µg/mL (≈ 253 µM)

## CC[C@@H](CO)NCCN[C@@H](CC)CO [ETHAMBUTOL HYDROCHLORIDE]
[7]
  MIC: 1.45 µM

## CC1Oc2ccccc2C=C1/C=C1\SC(=S)NC1=O (stereo not given)
[7]
  MIC: 0.36 µM (≈ 0.104 µg/mL)

## O=C1CSC(c2c(-c3ccccc3)[nH]c3ccc(Cl)cc23)N1c1nc(-c2cc3cc(Br)ccc3oc2=O)cs1 (stereo not given)
[8]
  inhibition of growth at 12.5 µg/mL: 80%

## CCCCCCCCCCCCN1C(=O)C(CC(=O)O)SC12CCN(C(=O)C(N)Cc1ccccc1)CC2 (stereo not given)
[9]
  inhibition at 25 µg/mL: 97%
[10]
  inhibition at 12.5 µg/mL: 94%

## O=C1C(CN2CCOCC2)SC(c2ccc(Cl)cc2)N1c1ccc(Cl)cc1 (stereo not given)
[11]
  MIC: 25 µg/mL (≈ 59.1 µM)

## O=C(NN1C(=O)CSC1c1ccccc1O)c1coc2ccc3ccccc3c12 (stereo not given)
[3]
  MIC: 50 µg/mL (≈ 124 µM)

## Cc1cc(C)c2c(c1)C1(SCC(=O)N1c1ccccc1C(=O)O)C(=O)N2 (stereo not given)
[1]
  inhibition of growth at 12.5 µg/mL: 90%

## Cc1nc(/N=C2\C(=O)Nc3ccccc32)sc1C(=O)NN1C(=O)CSC1c1ccccc1F (stereo not given)
[12]
  MIC: 0.78 µM (≈ 0.376 µg/mL)

## NNC(=O)c1ccncc1 [ISONIAZID]
[13]
  MIC: 1.25 µg/mL (≈ 9.11 µM)
[14]
  MIC: 12.5 µg/mL (≈ 91.1 µM)
[15]
  MIC: 0.56 µg/mL (≈ 4.08 µM)
[7]
  MIC: 0.64 µM (≈ 0.0878 µg/mL)
[16]
  MIC: 0.2 µg/mL (≈ 1.46 µM)
[17]
  MIC: 1.6 µg/mL
[18]
  MIC: 0.72 µM (≈ 0.0987 µg/mL)
[19]
  zone of inhibition at 20 µg/mL: 31 mm

## O=C(NN1C(=O)CSC1c1ccc([N+](=O)[O-])cc1)c1[nH]c2ccc(F)cc2c1-c1ccccc1 (stereo not given)
[20]
  MIC: 6.25 µg/mL (≈ 13.1 µM)

## Cc1ccc(/C=C2\SC(NCCn3c(C)nc4ccccc4c3=O)=NC2=O)cc1
[21]
  inhibition at 6.25 µg/mL: 99%

## Cc1nc(/N=C2\C(=O)Nc3ccccc32)sc1C(=O)NN1C(=O)CSC1c1ccc(Cl)cc1 (stereo not given)
[12]
  MIC: 0.78 µM (≈ 0.388 µg/mL)

## O=C(CNNC(=O)c1ccncc1)COc1ccc(/C=C2\SC(=O)NC2=O)cc1
[4]
  MIC: 50 µg/mL (≈ 121 µM)

## O=C1CSC(c2cc3ccccc3nc2Cl)N1c1ccc(F)cc1 (stereo not given)
[22]
  inhibition at 12.5 µg/mL: 99%

## O=C(CCN1C(=O)/C(=C/c2ccc([N+](=O)[O-])cc2)SC1=S)NNC(=O)c1ccccc1
[23]
  pIC50: 6.43
[17]
  MIC: 1.71 µM

## O=C1/C(=C/c2ccc(F)cc2)SC(=S)N1Cc1nnc(-c2cccnc2SCc2ccccc2)o1
[24]
  inhibition of growth at 50 µg/mL: 99%

## O=C(NN1C(=O)CSC1c1c[nH]c2ccccc12)c1ccncc1 (stereo not given)
[25]
  pKi: 6.19
[19]
  zone of inhibition at 20 µg/mL: 35 mm

## Cc1nc(-c2cnccn2)sc1C(=O)NN1C(=O)CSC1c1ccccc1 (stereo not given)
[26]
  inhibition at 30 µg/mL: 71%

## Cc1nc(/N=C2\C(=O)Nc3ccccc32)sc1C(=O)NN1C(=O)CSC1c1ccccc1Cl (stereo not given)
[12]
  MIC: 0.78 µM (≈ 0.388 µg/mL)

— ChEMBL document CHEMBL4813957, “Antitubercular properties of thiazolidin-4-ones - A review” (Eur J Med Chem, 2021)
